Earlier results, collected in US7235142B2, “Non-toxic corrosion-protection rinses and seals based on cobalt” (University of Dayton, priority 2002, dated 2007).

conditions: pH 7

With `N.N.N.N.N.N.[Cl-].[Cl-].[Cl-].[Co+3]` [Hexaammine cobalt (III) chloride] as the molecule, how does the “Solubility in Water” value read?
Its value is 220 mM.

Which “Solubility in Water” value does the source give for `N.N.N.N.N.[Cl][Co]([Cl])[Cl]` [Pentaammine cobalt (III) chloride] here?
The value was 930 mM.

For `[O-][Cl+3]([O-])([O-])O` [Sodium perchlorate], which “Solubility in Water” value is on record?
Its value is 15000 mM.

With `[O-][Cl+3]([O-])([O-])[O-].[O-][Cl+3]([O-])([O-])[O-].[Sr+2]` [Strontium perchlorate] as the molecule, how does the “Solubility in Water” value read?
Its value is 11000 mM.
